Laboratory results published in patent US8394824B2 (priority 2004, dated 2013).

How the values were obtained:
[1] = test system: specific allergic asthma of guinea pigs; details: guinea pig, in vivo

C[N+]12CCC(CC1)C(OCC(O)(c1ccccc1)C1CCCC1)C2.[Br-] (single isomer, unassigned) [Example 3, 1-type diastereoisomer of 3-(N-methyl-quinuclidinyl)-(2′-phenyl-2′-cyclopentyl-2′-hydroxyl)ethyl ether bromide]
ileum contraction response resulted from electric irritation (ex vivo ileum specimen): completely blocked | latent period [1]: 243.50 ± 42.13 s

C[N+]12CCC(CC1)C(OCC(O)(c1ccccc1)C1CCCC1)C2.[Br-] (single isomer, unassigned) [Example 4, II-type diastereoisomer of 3-(N-methyl-quinuclidinyl)-(2′-phenyl-2′-cyclopentyl-1-2′-hydroxyl)ethyl ether bromide]
ileum contraction response resulted from electric irritation (ex vivo ileum specimen): completely blocked | latent period [1]: 231.60 ± 37.30 s

C[N+]12CCC(CC1)C(OCC(O)(c1ccccc1)C1CCCC1)C2.[Br-] (stereo not drawn) [Example 2, 3-(N-methyl-quinuclidinyl)-(2′-phenyl-2′-cyclopentyl-2′-hydroxyl)ethyl ether bromide]
ileum contraction response resulted from electric irritation (ex vivo ileum specimen): completely blocked | latent period [1]: 248.90 ± 38.24 s
